Measurements from paper PMC6179086 (Journal of Enzyme Inhibition and Medicinal Chemistry, 2018).

What was measured:
Experiment in all cases: stopped-flow CO2 hydration assay
Format in all cases: biochemical
[1] = molecular target: T1, Can2-CA (Cryptococcus neoformans, UniProt Q3I4V7); conditions: read-out: Inhibition constant, Ki (μM) / β-family / Can2
T1 construct: recombinant beta-CA, produced as reported earlier; dimer in the docking model
T1 sequence (Q3I4V7 1-239): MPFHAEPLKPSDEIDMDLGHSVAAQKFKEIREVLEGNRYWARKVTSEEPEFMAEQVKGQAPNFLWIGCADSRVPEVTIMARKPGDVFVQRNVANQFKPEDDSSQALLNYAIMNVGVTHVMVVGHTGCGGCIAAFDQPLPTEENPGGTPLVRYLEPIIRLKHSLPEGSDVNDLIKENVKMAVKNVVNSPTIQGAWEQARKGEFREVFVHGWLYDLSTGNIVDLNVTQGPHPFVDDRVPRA

[2] = molecular target: T2, VchCA (Vibrio cholerae, UniProt A0A086SLX8)
T2 construct: gene can
T2 sequence (A0A086SLX8 1-222): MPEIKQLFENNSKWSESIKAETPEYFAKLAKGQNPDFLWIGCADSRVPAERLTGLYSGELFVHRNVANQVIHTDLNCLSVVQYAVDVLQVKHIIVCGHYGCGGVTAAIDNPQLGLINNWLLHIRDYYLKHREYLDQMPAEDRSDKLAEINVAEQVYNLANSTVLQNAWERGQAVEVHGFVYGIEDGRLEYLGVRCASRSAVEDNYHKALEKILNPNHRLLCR

[3] = molecular target: T3, SspCA (Sulfurihydrogenibium sp. YO3AOP1, UniProt B2V8E3); conditions: read-out: Inhibition constant, Ki (μM) / α-family / Ssp
T3 construct: recombinant bacterial alpha-CA, produced as reported earlier
T3 sequence (B2V8E3 21-246): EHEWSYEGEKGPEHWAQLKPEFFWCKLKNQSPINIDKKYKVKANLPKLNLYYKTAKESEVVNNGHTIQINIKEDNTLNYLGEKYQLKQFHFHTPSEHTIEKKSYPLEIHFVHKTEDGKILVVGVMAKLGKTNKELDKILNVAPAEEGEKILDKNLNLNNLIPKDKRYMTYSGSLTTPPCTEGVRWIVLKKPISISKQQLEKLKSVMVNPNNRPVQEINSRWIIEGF

[4] = molecular target: T4, MgCA (Malassezia globosa, UniProt A8Q1N3); conditions: read-out: Inhibition constant, Ki (μM) / β-family / Mg
T4 construct: gene MGL_1814
T4 sequence (A8Q1N3 1-241): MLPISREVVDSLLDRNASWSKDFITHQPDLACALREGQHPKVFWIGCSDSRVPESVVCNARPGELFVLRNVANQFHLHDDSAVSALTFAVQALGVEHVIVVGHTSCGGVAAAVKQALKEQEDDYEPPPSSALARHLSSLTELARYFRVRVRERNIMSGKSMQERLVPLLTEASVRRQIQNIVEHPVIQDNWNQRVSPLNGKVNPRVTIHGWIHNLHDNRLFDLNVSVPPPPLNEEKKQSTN

[5] = molecular target: T5, hCA IX (Homo sapiens, UniProt Q16790); conditions: read-out: Inhibition constant, Ki (μM) / α-family / CAI
T5 construct: gene CA9

Row | Compound | Ki [1] | Ki [2] | further results
1 | NC(=O)c1ccc[n+]([O-])c1N [compound 5, 5] | 1.7 µM | 2100 nM | –
2 | CCc1cc(C(C)C)c(C(N)=O)c(N)[n+]1[O-] [compound 13, 13] | – | 2800 nM | –
3 | CCc1cc(C(C)C)[n+]([O-])c(N)c1C(N)=O [compound 16, 16] | – | – | Ki [3]: 58.5 µM
4 | CCc1cc(C)[n+]([O-])c(N)c1C(N)=O [compound 19, 19] | – | – | Ki [3]: 42.2 µM
5 | CC(C)c1cc(-c2ccccc2)c(C(N)=O)c(N)[n+]1[O-] [compound 20, 20] | – | – | Ki [4]: 46.2 µM
6 | CCc1cc(-c2ccccc2)c(C(N)=O)c(N)[n+]1[O-] [compound 21, 21] | – | 2200 nM | –
7 | NC(=O)c1ncc[n+]([O-])c1N [compound 30, 30] | 1.1 µM | – | Ki [5]: > 100 µM; Ki [4]: 6.7 µM
8 | Cc1cnc(C(N)=O)c[n+]1[O-] [compound 31, 31] | 1.3 µM | – | –
